Legend:
[1] = test system: primary CD326+ IECs; assay: Chromatin immunoprecipitation (acetylated histone-H4) of primary CD326+ IECs; type: cell-based, mouse
Description: Primary CD326+ IECs were seeded on gelatin (Cell Biologics; Chicago, Ill.) coated cell culture dishes (100 mm) overnight followed by treatment with butyrate 1 mM for 24 hours. Cells were harvested and used for ChIP analysis using EZ-Magna ChIP kit from EMD Millipore (Billerica, Mass.) following the manufacturers instructions. Briefly, cells were cross-linked with 1% formaldehyde and extracted chromatin was sonicated using a Bioruptor Pico by Diagenode (Denville, N.J.) to yield DNA fragments predominately in the range of 200-1000 bp. Sonicated lysates were immunoprecipitated (IP) utilizing ChIP grade specific antibodies purchased from EMD Millipore for acetylated histone-H4 and RNA Pol II or IgG control antibody. De-crosslinked DNA was next examined by qPCR using primers targeting the promoter region of the target gene BCL-B (Bcl2110) (Forward: […] (SEQ ID NO:50); Reverse: […] (SEQ ID NO:51)), Slc5a8 (Forward: […] (SEQ ID NO:52); Reverse: […] (SEQ ID NO:53), and JAM (F11r) (Forward: […] (SEQ ID NO:54; Reverse: […] (SEQ ID NO:55)). IP efficiency of all samples was verified by qPCR analysis of the promoter region of Gapdh (Forward: […] (SEQ ID NO:56); Reverse: […] (SEQ ID NO:57)). Data analysis was determined as percent of input utilizing the equations: ΔCt[normalized ChIP]=(Ct[ChIP]−(Ct[Input]−[…])) and % Input=2(−ΔCt [normalized ChIP]).

[2] = test system: C3H.SW (H-2b) → C57BL/6J (H-2b) BMT recipients; assay: MHC-matched, minor antigen mismatched BMT model with butyrate; type: in vivo, mouse
Description: BMTs were performed as previously described (Reddy, P. et al. A crucial role for antigen-presenting cells and alloantigen expression in graft-versus-leukemia responses. Nat. Med. 11, 1244-1249 (2005); 15). Briefly, syngeneic (BALB/c→BALC/c or C57BL/6J→C57BL/6J) and allogeneic (C57BL/6J→BALB/c or C3H.sw→C57BL/6J) recipients received lethal irradiation. On day −1, BALB/c recipients received a total of 800 cGy of irradiation (split dose separated by 3 hours) and B6 animals received a single dose of 1000 cGy. […] Survival was monitored daily and the recipient body weight and GVHD clinical scores were determined weekly, as described previously42. […]
Systemic administration of HDACi decreases acute GVHD (Reddy, P. et al. Histone deacetylase inhibitor suberoylanilide hydroxamic acid reduces acute graft-versus-host disease and preserves graft-versus-leukemia effect. Proc Natl Acad Sci USA 101, 3921-3926 (2004); Reddy, P. et al. Histone deacetylase inhibition modulates indoleamine 2,3-dioxygenasedependent DC functions and regulates experimental graft-versus-host disease in mice. J. Clin. Invest. 118, 2562-2573 (2008); Sun, Y. et al. Cutting edge: Negative regulation of dendritic cells through acetylation of the nonhistone protein STAT-3. J Immunol 182, 5899-5903 (2009)). It was therefore determined if increasing local levels of endogenous HDACi, butyrate, would impact GVHD severity. […]

[3] = test system: IECs; assay: qPCR of butyrate treated IECs in vitro; type: cell-based, mouse
Description: mRNA was isolated from samples using RNeasy kit following manufacturers instructions (Qiagen; Venlo, Netherlands). Using 1 μg of each mRNA template, cDNA was synthesized using SuperScript VILO (Invitrogen; Carlsbad, Calif.). qPCR primers were designed for murine targets. All primers were verified for the production of a single specific PCR product using a melting curve program and are shown below in Table 2.
It was hypothesized that butyrate would increase anti-apoptotic genes by modulation of histone acetylation. […] It was also determined if the restored acetylation of histone H4 observed in butyrate-treated allo-BMT recipients was responsible for increased BCL-B (Bcl2110) and JAM (F11r) expression via ChIP.

[4] = test system: HDAC; assay: HDAC enzymatic activity in donor T cells from recipient spleen; type: in vivo, mouse; conditions: butyrate vs vehicle treated allogeneic animals
Description: To further determine whether the salutary effects of local treatment with butyrate on GI GVHD were dependent on donor Treg cells, a BMT was performed utilizing the same HC mismatched BMT model in which C57BL/6J (H-2b) cells are transferred to Balb/c (H-2d) mice. T cell-depleted (TCD) bone marrow was transplanted and purified CD4+CD25− T cells from donors. Vehicle or butyrate was administered to the recipients daily for 1 week, then every other day thereafter as above. […]. J. Exp. Med. 204, 57-63 (2007); Lahl, K. & Sparwasser, T. In vivo depletion of FoxP3+ Tregs using the DEREG mouse model. […]. The Treg depleted T cells were then used as donor cells in the major MHC mismatch model used above. […] To further examine whether the local administration of butyrate impacted donor T cells directly, the HDAC and HAT enzymatic activity was determined in donor T cells harvested from the recipient animals. Both the HDAC activity or HAT activity in the donor T cells harvested from the recipient spleen were similar between butyrate and vehicle treated allogeneic animals.

[5] = IECs following butyrate treatment

CCCC(=O)[O-].[Na+] [butyrate, sodium butyrate]
association of acetylated histone H4 in the promoter region of Slc5a8 ([1]; IECs (CD326+) treated with butyrate 1 mM 24 hours): increased association
acetylation of histone H4 at the promoter region of Bcl2110 ([1]; butyrate treated IECs (CD326+)): associated with the promoter region
acetylation of histone H4 at the promoter region of F11r ([1]; butyrate treated IECs (CD326+)): associated with the promoter region
histological scores in both the intestines and liver ([2]; 21 days following BMT, minor antigen mismatch): decreased histological scores
survival ([2]; minor antigen mismatched model): improved survival
mRNA expression of JAM (F11r) [3, 5]: significantly increased
mRNA expression of occludin (Ocln) [3, 5]: significantly increased
Bakl mRNA expression ([3]; butyrate treated IECs): significantly decreased
Bax mRNA expression ([3]; butyrate treated IECs): significantly decreased
transcripts of BCL-B (Bcl2110) ([3]; butyrate treated IECs): significantly increased
HDAC activity in donor T cells [4]: similar
